Reference: patent US7803795B2, “Phthalazine derivatives as parp inhibitors” (Janssen Pharmaceutica N.V., priority 2004, dated 2010)

Columns and labels:
PARP-1 enzyme = molecular target: T1, PARP-1 enzyme (Homo sapiens, UniProt P09874); assay: in vitro filtration assay for PARP-1 inhibitory activity; type: biochemical; conditions: [32P]-NAD, histones, nicked DNA; dose-response 10^-5 M to 10^-8 M; read-out: in vitro filter assay PARP-1 pIC50 (converted)
T1 construct: made in house
Procedure: In Vitro Filtration Assay for PARP-1 Inhibitory Activity
Compounds of the present invention were tested in an in vitro filtration assay assessing PARP-1 activity (triggered in the presence of nicked DNA) by means of its histone poly (ADP-ribosylation activity using [^32P]-NAD as ADP-ribosyl donor. The radioactive ribosylated histones were precipitated by trichloroacetic acid (TCA) in 96-well filterplates and the incorporated [^32P] measured using a scintillation counter
A mixture of histones (stock solution: 5 mg/ml in H2O), NAD^+ (stock solution: 100 mM in H2O), and [^32P]-NAD^+ in incubation buffer (50 mM Tris/HCl, pH 8; 0.2 mM DTT; 4 mM MgCl2) was made. A mixture of the PARP-1 enzyme (5-10 μg/ml) and nicked DNA was also made. The nicked DNA was prepared as described in the in vitro SPA for PARP-1 inhibitory activity. Seventy-five μl of the PARP-1 enzyme/DNA mixture together with 1 μl of compound in DMSO and 25 μl of histones-NAD^+/[^32P]-NAD^+ mixture was added per well of a 96-well filterplate (0.45 μm, supplier Millipore). The final concentrations in the incubation mixture were 2 μg/ml for the histones, 0.1 mM for the NAD^+, […] (0.5 μC) for the [^32P]-NAD^+ and 2 μg/ml for the nicked DNA. Plates were incubated for 15 min. at room temperature and the reaction was terminated by the addition of 10 μl ice cold 100% TCA followed by the addition of 10 μl ice-cold BSA solution (1% in H2O). The protein fraction was allowed to precipitate for 10 min. at 4° C. and plates were vacuum filtered. The plates were subsequently washed with, for each well, 1 ml of 10% ice cold TCA, 1 ml of 5% ice cold TCA and 1 ml of 5% TCA at room temperature. Finally 100 μl of scintillation solution (Microscint 40, Packard) was added to each well and the plates were transferred to a TopCountNXT™ (supplier: Packard) for scintillation counting and values were expressed as counts per minute (cpm). For each experiment, controls (containing PARP-1 enzyme and DMSO without compound), a blank incubation (containing DMSO but no PARP-1 enzyme or compound) and samples (containing PARP-1 enzyme and compound dissolved in DMSO) were run in parallel. All compounds tested were dissolved and eventually further diluted in DMSO. In first instance, compounds were tested at a concentration of 10^−5M. […] In each test, the blank value was subtracted from both the control and the sample values. The control sample represented maximal PARP-1 enzyme activity. For each sample, the amount of cpm was expressed as a percentage of the mean cpm value of the controls. When appropriate, IC50-values (concentration of the drug, needed to reduce the PARP-1 enzyme activity to 50% of the control) were computed using linear interpolation between the experimental points just above and below the 50% level. Herein the effects of test compounds are expressed as pIC50 (the negative log value of the IC50-value). As a reference compound, 4-amino-1,8-naphthalimide was included to validate the filtration assay.

T1 sequence (P09874 whole entry): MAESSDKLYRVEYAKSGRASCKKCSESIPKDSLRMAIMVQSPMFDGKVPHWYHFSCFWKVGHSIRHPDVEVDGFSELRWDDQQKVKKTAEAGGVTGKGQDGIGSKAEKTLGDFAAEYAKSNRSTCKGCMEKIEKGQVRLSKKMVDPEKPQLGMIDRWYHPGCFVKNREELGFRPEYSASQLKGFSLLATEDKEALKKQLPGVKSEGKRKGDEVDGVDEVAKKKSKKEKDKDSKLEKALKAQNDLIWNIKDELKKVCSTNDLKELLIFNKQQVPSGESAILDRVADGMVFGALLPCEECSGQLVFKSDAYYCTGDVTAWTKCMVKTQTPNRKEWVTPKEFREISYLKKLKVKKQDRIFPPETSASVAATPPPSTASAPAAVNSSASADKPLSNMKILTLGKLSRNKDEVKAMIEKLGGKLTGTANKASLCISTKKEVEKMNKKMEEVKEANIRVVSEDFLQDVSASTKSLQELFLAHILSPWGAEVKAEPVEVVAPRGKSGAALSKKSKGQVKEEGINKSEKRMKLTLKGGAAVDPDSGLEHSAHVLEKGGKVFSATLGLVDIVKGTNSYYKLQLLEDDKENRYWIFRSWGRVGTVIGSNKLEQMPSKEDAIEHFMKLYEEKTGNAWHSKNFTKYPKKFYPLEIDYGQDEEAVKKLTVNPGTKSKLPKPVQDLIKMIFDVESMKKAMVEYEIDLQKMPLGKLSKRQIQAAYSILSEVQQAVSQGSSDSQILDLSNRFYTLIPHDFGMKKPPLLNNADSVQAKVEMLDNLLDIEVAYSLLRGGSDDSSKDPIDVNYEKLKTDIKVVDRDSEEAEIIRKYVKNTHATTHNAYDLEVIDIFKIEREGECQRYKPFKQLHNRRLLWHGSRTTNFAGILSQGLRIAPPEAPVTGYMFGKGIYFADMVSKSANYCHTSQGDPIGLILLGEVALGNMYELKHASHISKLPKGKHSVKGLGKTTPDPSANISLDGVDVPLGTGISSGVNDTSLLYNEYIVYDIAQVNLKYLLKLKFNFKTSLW

Structure (SMILES)	IC50 (PARP-1 enzyme) [nM]	melting point [°C]
O=c1[nH]nc(NC2CCN(C[C@@H](O)[C@@H]3CCc4ccccc4O3)CC2)c2ccccc12 (relative stereo) [Compound 27]	215	–
O=c1[nH]nc(C2CCN(Cc3ccccc3)CC2)c2ccccc12 [Compound 1]	55	222
O=c1[nH]nc(N[C@@H]2C[C@H]3CC[C@@H](C2)N3CCCC(c2ccc(F)cc2)c2ccc(F)cc2)c2ccccc12 [Compound 3]	204	–
O=c1[nH]nc(C2CCNCC2)c2ccccc12 [Compound 4]	70.8	–
CCOC(=O)N1[C@@H]2CC[C@H]1C[C@H](Nc1n[nH]c(=O)c3ccccc13)C2 [Compound 11]	30	218.6
Clc1nnc(NC2CCN(Cc3ccccc3)C2)c2ccccc12 (stereo not shown) [Compound 12]	188	–
O=c1[nH]nc(C2CCN(CCCOc3ccc(F)cc3)CC2)c2ccccc12 [Compound 13]	19.1	–
O=c1[nH]nc(N[C@@H]2C[C@H]3CC[C@@H](C2)N3)c2ccccc12 [Compound 15]	35.5	–
CCOC(=O)N1[C@@H]2CC[C@H]1C[C@H](Nc1nnc(Cl)c3ccccc13)C2 [Compound 24]	388	–
CCOC(=O)N1CCC(c2n[nH]c(=O)c3ccccc23)CC1 [Compound 25]	240	–
Cc1nnc(N2CCN(CCCC(c3ccc(F)cc3)c3ccc(F)cc3)CC2)c2ccccc12 [Compound 29]	302	–
O=c1[nH]nc(NC2CCCN(CCCC(c3ccc(F)cc3)c3ccc(F)cc3)CC2)c2ccccc12 (stereo not shown) [Compound 30]	230	–
O=c1[nH]nc(NC2CCCNCC2)c2ccccc12 (stereo not shown) [Compound 34]	49.4	–
O=c1[nH]nc(NCC2CCCN(Cc3ccccc3)C2)c2ccccc12 (stereo not shown) [Compound 44]	221	–
O=c1[nH]nc(NC2CCN(CCCCOc3ccccc3)CC2)c2ccccc12 [Compound 46]	134	–
CCOC(=O)N1CCC(Nc2n[nH]c(=O)c3ccccc23)C1 (stereo not shown) [Compound 48]	163	–
O=c1[nH]nc(NCC2CCCN(CCCC(c3ccc(F)cc3)c3ccc(F)cc3)C2)c2ccccc12 (stereo not shown) [Compound 49]	516	–
CCOC(=O)N1CCCC(Nc2n[nH]c(=O)c3ccccc23)CC1 (stereo not shown) [Compound 50]	643	–
O=c1[nH]nc(NC2CCN(Cc3ccccc3)C2)c2ccccc12 (stereo not shown) [Compound 51]	300	–
O=c1[nH]nc(N2CCN(CCCC(c3ccc(F)cc3)c3ccc(F)cc3)CC2)c2ccccc12 [Compound 52]	356	–
O=c1[nH]nc(NC2CCCN(Cc3ccccc3)C2)c2ccccc12 (stereo not shown) [Compound 53]	217	–

Structure (SMILES)	IC50 (PARP-1 enzyme) [nM]	melting point [°C]
O=c1[nH]nc(N2CCC(c3cccc(C(F)(F)F)c3)C2)c2ccccc12 (stereo not shown) [Compound 55]	210	–
CCOC(=O)N1CCC(Nc2n[nH]c(=O)c3ccccc23)CC1 [Compound 56]	774	–
Fc1ccc(C(CCCN2CCN(c3nnc(Cl)c4ccccc34)CC2)c2ccc(F)cc2)cc1 [Compound 57]	472	–
CCOC(=O)N1CCN(c2nnc(Cl)c3ccccc23)CC1 [Compound 58]	316	–
Clc1nnc(NC2CCN(CCCCOc3ccccc3)CC2)c2ccccc12 [Compound 59]	813	–
CN(c1nc2ccccc2s1)C1CCN(c2nnc(Cl)c3ccccc23)CC1 [Compound 61]	296	–
COc1ccc(CCN2CCC(Nc3n[nH]c(=O)c4ccccc34)CC2)cc1 [Compound 63]	146	–
O=c1[nH]nc(NC2CCN(C/C=C/c3ccccc3)CC2)c2ccccc12 [Compound 65]	91.2	–
O=c1[nH]nc(C2CCN(C/C=C/c3ccccc3)CC2)c2ccccc12 [Compound 66]	96.4	–
O=c1[nH]nc(C2CCN(CCCC(c3ccc(F)cc3)c3ccc(F)cc3)CC2)c2ccccc12 [Compound 67]	233	–
O=c1[nH]nc(C2CCN(CCCCOc3ccccc3)CC2)c2ccccc12 [Compound 68]	50	–
O=c1[nH]nc(C2CCN(c3ncccn3)CC2)c2ccccc12 [Compound 69]	125	–
Cc1nnc(N2CCN(CCn3c(=O)[nH]c4ccccc4c3=O)CC2)c2ccccc12 [Compound 70]	268	–
Cc1nnc(N2CCN(CCn3c(=O)[nH]c4ccccc43)CC2)c2ccccc12 [Compound 71]	533	–
Cc1nc2ccccn2c(=O)c1CCN1CCN(c2nnc(C)c3ccccc23)CC1 [Compound 72]	1050	–
Cc1nc2sccn2c(=O)c1CCN1CCN(c2nnc(C)c3ccccc23)CC1 [Compound 73]	515	–
Cc1nc2scc(C)n2c(=O)c1CCN1CCN(c2nnc(C)c3ccccc23)CC1 [Compound 74]	610	–
Cc1nc2n(c(=O)c1CCN1CCN(c3nnc(C)c4ccccc34)CC1)CCS2 [Compound 75]	361	–
Cc1nc2n(c(=O)c1CCN1CCN(c3nnc(C)c4ccccc34)CC1)CCCS2 [Compound 76]	413	–
Clc1nnc(N2CCN(c3ccccc3)CC2)c2ccccc12 [Compound 77]	168	–
